Results on 16 molecules are retold here after patent US6653340B1, “Compounds useful in the complement, coagulat and kallikrein pathways and method for their preparation” (BioCryst Pharmaceuticals, Inc., priority 1997, dated 2003).

Type in all cases: biochemical
In one assay the target is Factor Xa (Homo sapiens, UniProt P00742). Nature of the assay: Factor Xa inhibition assay (Chromozyme X substrate). Conditions: Factor Xa 0.5 U/mL, pH 8.0; read-out: Xa (Serine Protease Inhibitory Data, IC50). As to the method: (§1) The compounds to be tested were dissolved in a stock solution of DMSO at 10.0 or 100 mM. A portion of this stock solution was added to assay buffer in a final volume of 100 μL containing the enzyme of interest. Controls included buffer alone and enzyme solutions to which DMSO was added. Substrate was added to the reaction wells immediately or after incubation at room temperature. The reaction rates were measured spectrophotometrically by the generation of product at 405 nm for 200 sec. Background absorbance at 690 nm was measured and subtracted from the absorbance at 405 nm for each well.
Chain of Factor Xa (P00742 235-488 limits assumed): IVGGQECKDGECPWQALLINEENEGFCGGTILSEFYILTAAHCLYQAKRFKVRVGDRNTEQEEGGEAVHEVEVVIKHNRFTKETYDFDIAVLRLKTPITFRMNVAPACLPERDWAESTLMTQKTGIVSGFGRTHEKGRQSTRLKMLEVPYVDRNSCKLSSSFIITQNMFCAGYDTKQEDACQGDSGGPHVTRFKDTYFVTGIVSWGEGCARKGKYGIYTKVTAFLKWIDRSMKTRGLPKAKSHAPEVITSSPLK
Chain of Factor Xa (P00742 41-179 partner limits assumed): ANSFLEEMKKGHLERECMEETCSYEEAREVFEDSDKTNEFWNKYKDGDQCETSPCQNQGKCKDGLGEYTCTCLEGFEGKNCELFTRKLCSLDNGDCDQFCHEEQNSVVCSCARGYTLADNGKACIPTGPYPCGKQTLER
(§2) The reaction rate for enzyme alone was compared to the rate of enzyme in the presence of inhibitor and the percent inhibition was calculated as shown below:
(§3) Percent Inhibition=[Rate without inhibitor−Rate with inhibitor)/(Rate without inhibitor)]×100
(§4) Compounds in the examples were tested a minimum of three times.
(§5) Thrombin was assayed at 12.5 U/ml using 0.37 mM N-Benzoyl-Phe-Val-Arg-p-nitroanilide (Svendsen, L.; Blomback B.; Blomback, M.; Olsson, P. I. Substrate for determination of trypsin, thrombin and thrombin-like enzymes. Folia Haematol. 1972, 98, 446-454.) as the substrate in 100 mM HEPES, 10 mM CaCl2, 10% DMSO, pH 7.5. Factor Xa, 0.5 U/mL, was assayed in 50 mM HEPES, 150 mM NaCl, 10 mM CaCl2, pH 8.0 using Chromozyme X, 0.17 mM, as the substrate. Plasmin (0.004 units/mL), factor XIIa ([…]) and kallikrein (0.02 units/mL were assayed using modifications of the techniques originally described by McRae, et al. (Biochemistry. 1981, 20, 7196-7206). The assays were run in 200 mM triethanolamine, pH 7.8 and 100 mM Tris-HCl, 100 mM EDTA, […] using Z-Lys-SBzl, 0.13 mM and […], 0.16 mM, as substrates, respectively.

The target in a further assay is kallikrein (Homo sapiens, UniProt P03952). The experiment in a line: Kallikrein inhibition assay (thioester substrate). Conditions: kallikrein 0.02 units/mL; read-out: Kallikrein (Serine Protease Inhibitory Data, IC50). As to the method: as §1, §2, §3, §4, §5
Chain of kallikrein (P03952 whole entry): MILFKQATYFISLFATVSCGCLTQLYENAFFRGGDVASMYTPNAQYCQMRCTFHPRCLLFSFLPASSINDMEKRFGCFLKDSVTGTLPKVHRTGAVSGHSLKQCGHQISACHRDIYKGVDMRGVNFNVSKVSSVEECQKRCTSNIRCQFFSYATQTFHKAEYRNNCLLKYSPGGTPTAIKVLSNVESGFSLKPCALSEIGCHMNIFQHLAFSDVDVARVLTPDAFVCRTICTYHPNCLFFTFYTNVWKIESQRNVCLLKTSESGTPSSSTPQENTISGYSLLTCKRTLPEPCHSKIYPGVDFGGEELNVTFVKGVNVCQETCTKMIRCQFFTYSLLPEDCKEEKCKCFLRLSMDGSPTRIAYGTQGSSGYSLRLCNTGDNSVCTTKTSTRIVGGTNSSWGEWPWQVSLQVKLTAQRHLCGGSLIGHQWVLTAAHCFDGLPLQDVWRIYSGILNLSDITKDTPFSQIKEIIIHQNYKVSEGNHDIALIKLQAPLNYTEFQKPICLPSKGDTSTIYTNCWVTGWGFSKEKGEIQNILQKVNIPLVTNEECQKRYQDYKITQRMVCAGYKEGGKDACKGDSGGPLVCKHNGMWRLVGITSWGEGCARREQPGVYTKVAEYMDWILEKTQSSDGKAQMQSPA
For another assay, the target named is Plasmin (Homo sapiens, UniProt P00747). The experiment in a line: Plasmin inhibition assay (thioester substrate). The conditions noted are these: plasmin 0.004 units/mL; read-out: Plasmin (Serine Protease Inhibitory Data, IC50). As to the method: as §1, §2, §3, §4, §5
Chain of Plasmin (P00747 581-810 limits assumed, species assumed): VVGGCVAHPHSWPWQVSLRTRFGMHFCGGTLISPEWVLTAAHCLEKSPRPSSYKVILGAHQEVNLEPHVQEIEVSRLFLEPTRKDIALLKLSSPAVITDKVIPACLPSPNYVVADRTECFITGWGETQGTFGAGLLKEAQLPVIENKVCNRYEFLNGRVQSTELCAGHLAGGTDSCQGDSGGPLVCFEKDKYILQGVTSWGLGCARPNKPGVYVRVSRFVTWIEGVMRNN
Chain of Plasmin (P00747 97-580 partner limits assumed, species assumed): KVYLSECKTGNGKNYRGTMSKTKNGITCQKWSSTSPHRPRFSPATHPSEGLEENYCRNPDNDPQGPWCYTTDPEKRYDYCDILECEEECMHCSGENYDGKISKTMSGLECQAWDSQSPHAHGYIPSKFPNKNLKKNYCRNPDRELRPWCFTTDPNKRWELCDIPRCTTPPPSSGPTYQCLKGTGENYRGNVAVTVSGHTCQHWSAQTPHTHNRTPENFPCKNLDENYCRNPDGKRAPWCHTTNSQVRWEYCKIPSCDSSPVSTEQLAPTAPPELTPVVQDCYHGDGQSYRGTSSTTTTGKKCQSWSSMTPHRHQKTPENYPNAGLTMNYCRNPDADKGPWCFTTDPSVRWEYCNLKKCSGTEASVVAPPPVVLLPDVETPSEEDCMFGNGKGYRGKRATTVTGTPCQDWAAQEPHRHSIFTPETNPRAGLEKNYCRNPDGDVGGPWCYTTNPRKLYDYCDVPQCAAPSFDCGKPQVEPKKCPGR
For another assay, the target named is Factor D (Homo sapiens, UniProt P00746). The experiment in a line: Factor D esterolytic inhibition assay (Z-Lys-SBzl substrate). Details: Factor D was purified from the urine of a patient with Fanconi syndrome by ion exchange chromatography; from tissue; host or cells: urine of a patient with Fanconi syndrome. The conditions noted are these: Z-Lys-SBzl 1.29 mM, pH 7.5, 10% DMSO; read-out: Factor D (Serine Protease Inhibitory Data, IC50).
Chain of Factor D (P00746 26-253): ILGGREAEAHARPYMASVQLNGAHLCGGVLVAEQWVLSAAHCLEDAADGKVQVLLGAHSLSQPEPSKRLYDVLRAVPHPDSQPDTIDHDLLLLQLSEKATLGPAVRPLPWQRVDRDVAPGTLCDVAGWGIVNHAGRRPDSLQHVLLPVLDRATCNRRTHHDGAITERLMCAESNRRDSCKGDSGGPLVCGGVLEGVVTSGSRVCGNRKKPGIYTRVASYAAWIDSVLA
Description: A modification of the procedure of Volanakis (Volankis, J. E.; Barnum, S. R.; Kilpatrick, J. M. Purification and properties of human factor D. Methods in Enzymol. 1993, 223, 82-97) for purification of Factor D was utilized as described by Yamauchi (Yamauchi, Y.; Stevens, J. W.; Macon, K. J.; Volanakis, J. E. Recombinant and native zymogen forms of human complement factor D. J. Immunol. 1994, 152, 3645-3653. Briefly, Factor D was purified from the urine of a patient with Fanconi syndrome by ion exchange chromatography using BioRex 70 and two rounds of ion-exchange chromatography in a Pharmacia FPLC system using a HR5/5 Mono S column.
as §1, §2, §3, §4
An established esterolytic assay for the measurement of Factor D activity and inhibition of Factor D activity was used (Kam, C. M.; McRae, B. J.; Harper, J. W.; Niemann, M. A.; Volanakis, J. E.; Powers, J. C. Human complement proteins D, C2, and B Active site mapping with peptide thioester substrates. J Biol. Chem. 1987, 262, 3444-3451). […] Hydrolysis of this compound by Factor D liberated a free sulfhydryl group which is then reacted with 5,5′-dithiobis(2nitrobenzoic acid) producing an intense yellow color (Habeeb, A. F. S. A. Reaction of protein sulfhydryl groups with Ellman's Reagent. Methods in Enzymol. 1976, 25, 457-464.). The assays were performed in 96 well microtiter plates and rates of hydrolysis were monitored at 405 nm in a Anthos Labtec HT2 plate reader. Hydrolysis rates were reported as change in mOD/min. The assay was conducted in 100 mM HEPES, 500 mM NaCl, pH 7.5 containing 10% DMSO in a final volume of 200 μL per well.

In another assay the target is Thrombin (Homo sapiens, UniProt P00734). Nature of the assay: Thrombin inhibition assay (N-Benzoyl-Phe-Val-Arg-p-nitroanilide substrate). Conditions: thrombin 12.5 U/ml, pH 7.5; read-out: Thrombin (Serine Protease Inhibitory Data, IC50). As to the method: as §1, §2, §3, §4, §5
The next assay deals with T1, C1s (Homo sapiens, UniProt P09871).
T1 sequence (P09871 16-688): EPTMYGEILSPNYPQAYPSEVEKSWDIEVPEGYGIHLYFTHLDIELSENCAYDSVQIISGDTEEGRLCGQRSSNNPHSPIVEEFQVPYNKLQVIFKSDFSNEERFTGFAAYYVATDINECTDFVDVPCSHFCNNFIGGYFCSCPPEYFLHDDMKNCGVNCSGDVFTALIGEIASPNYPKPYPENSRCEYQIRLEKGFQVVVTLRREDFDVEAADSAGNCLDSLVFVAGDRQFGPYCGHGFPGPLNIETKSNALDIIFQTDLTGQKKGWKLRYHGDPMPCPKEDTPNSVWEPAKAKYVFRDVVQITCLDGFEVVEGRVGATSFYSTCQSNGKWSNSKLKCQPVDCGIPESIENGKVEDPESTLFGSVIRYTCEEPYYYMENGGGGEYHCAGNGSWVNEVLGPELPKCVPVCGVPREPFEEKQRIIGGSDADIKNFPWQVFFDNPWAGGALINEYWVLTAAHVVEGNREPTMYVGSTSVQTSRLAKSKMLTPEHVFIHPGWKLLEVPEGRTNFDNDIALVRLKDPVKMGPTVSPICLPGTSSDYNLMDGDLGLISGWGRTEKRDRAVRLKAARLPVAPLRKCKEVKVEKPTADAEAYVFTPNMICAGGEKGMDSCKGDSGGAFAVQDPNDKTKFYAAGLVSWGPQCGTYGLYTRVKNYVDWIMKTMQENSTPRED
The experiment in a line: C1s esterolytic inhibition assay (Z-Lys-SBzl substrate). Conditions: Z-Lys-SBzl 1.29 mM, C1s 3 to 13 nM; read-out: Cls (Serine Protease Inhibitory Data, IC50). As to the method: as §1, §2, §3, §4
C1s esterolytic activity was assayed using a modification of the technique originally described by Kam using Z-Lys-SBzl, 1.29 mM as substrate and C1s at 3 to 13 nM.

For the next assay, the target named is T2, factor XIIa (Homo sapiens, UniProt P00748).
T2 sequence (P00748 373-615 limits assumed): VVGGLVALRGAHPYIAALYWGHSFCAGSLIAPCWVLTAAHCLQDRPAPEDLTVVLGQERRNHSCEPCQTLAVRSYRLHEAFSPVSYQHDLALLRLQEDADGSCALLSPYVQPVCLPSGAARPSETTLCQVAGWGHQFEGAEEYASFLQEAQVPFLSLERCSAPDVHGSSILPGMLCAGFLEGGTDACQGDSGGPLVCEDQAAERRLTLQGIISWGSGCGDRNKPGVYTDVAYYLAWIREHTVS
Nature of the assay: Factor XIIa inhibition assay (thioester substrate). The conditions noted are these: read-out: XIIa (Serine Protease Inhibitory Data, IC50). As to the method: as §1, §2, §3, §4, §5

`N=C(N)c1cc2ccc(OC(=O)c3ccco3)cc2o1` [Example 1, 2-Amidino-6-benzofuranyl 2-furanylcarboxylate]: the IC50 on Factor Xa was determined as 60 nM; on kallikrein, 5.4 nM; on Plasmin, 42 nM; on Factor D it was 3650 nM; on Thrombin, 57 nM; on C1s, 37 nM. In addition, the IC50 at factor XIIa stood at 20 nM.
As for `N=C(N)c1cc2ccc(OC(=O)c3cccs3)cc2o1` [Example 2], the IC50 on Factor Xa was determined as 996 nM; at Plasmin, 817 nM; at Factor D, 9110 nM; on Thrombin, 520 nM; at C1s, 519 nM.
As to `N=C(N)c1cc2cc(OC(=O)c3ccco3)ccc2o1` [Example 3], the IC50 on Factor Xa is 4 nM; at kallikrein, 5.4 nM; on Plasmin it was 23 nM; on Factor D it was 460 nM; on Thrombin it was 65 nM; at C1s it was 56 nM. Further, the IC50 on factor XIIa turned out to be 20.2 nM.
As for `N=C(N)c1cc2cc(OC(=O)c3cccs3)ccc2o1` [Example 4], the IC50 turned out to be 880 nM at Factor Xa; 116 nM on Plasmin; 5590 nM at Factor D; 124 nM on Thrombin; 50 nM at C1s.
For `N=C(N)c1cc2cc(OC(=O)c3ccoc3)ccc2o1` [Example 5], in that order: 1580 nM, 325 nM, 2850 nM, 104 nM and 76 nM.
For `N=C(N)c1cc2cc(OC(=O)c3ccsc3)ccc2o1` [Example 6] the same measures were 500 nM, 546 nM, 10800 nM, 361 nM and 122 nM.
`N=C(N)c1cc2ccc(OC(=O)c3ccccc3)cc2s1` [Example 7]: the IC50 is 23 nM on Factor Xa; 1.3 nM on kallikrein; 11 nM on Plasmin; 500 nM on Factor D; 39 nM on Thrombin; 11 nM at C1s. For the same molecule, on factor XIIa, the half-maximal inhibitory concentration (IC50) is 901 nM.
`N=C(N)c1cc2ccc(OC(=O)c3ccco3)cc2s1` [Example 8]: the concentration for half-maximal inhibition (IC50) at Factor Xa turned out to be 1 nM; on kallikrein, 1.4 nM; at Plasmin it was 1 nM; on Factor D, 147 nM; at Thrombin, 44 nM; at C1s it was 1.7 nM. For the same molecule, on factor XIIa, the IC50 worked out at 5.4 nM.
In the case of `N=C(N)c1cc2ccc(OC(=O)c3cccs3)cc2s1` [Example 9], the IC50 came out at 3.2 nM on Factor Xa; 1.4 nM on kallikrein; 4.1 nM at Plasmin; 96 nM at Factor D; 42 nM on Thrombin; 1.6 nM on C1s. The IC50 on factor XIIa was 6 nM.
In the case of `N=C(N)c1cc2ccc(OC(=O)c3ccoc3)cc2s1` [Example 10], the IC50 at Factor Xa was found to be 1 nM; on kallikrein it was 1.6 nM; at Plasmin it was 1 nM; on Factor D, 177 nM; on Thrombin it was 47 nM; at C1s, 4.1 nM. Besides, the IC50 at factor XIIa was determined as 17.4 nM.
For `N=C(N)c1cc2ccc(OC(=O)c3ccsc3)cc2s1` [Example 11], the IC50 at Factor Xa amounted to 6 nM; on kallikrein, 1.6 nM; at Plasmin, 9 nM; on Factor D, 175 nM; at Thrombin, 39 nM; at C1s, 4.3 nM. The IC50 on factor XIIa was 12.7 nM.
`N=C(N)c1nc2ccc(OC(=O)c3ccccc3)cc2s1` [Example 12]: the IC50 on Factor Xa worked out at 52 nM; at kallikrein it was 3.8 nM; on Plasmin, 37 nM; at Factor D, 564 nM; on Thrombin, 44 nM; on C1s, 5.3 nM. Also, on factor XIIa, the IC50 turned out to be 13 nM.
On to `N=C(N)c1nc2ccc(OC(=O)c3ccco3)cc2s1` [Example 13], for which the IC50 came out at 1 nM at Factor Xa; 4 nM at kallikrein; 2 nM on Plasmin; 421 nM at Factor D; 25 nM on Thrombin; 3 nM at C1s. The IC50 on factor XIIa was 9 nM.
`N=C(N)c1nc2ccc(OC(=O)c3ccc(Cl)s3)cc2s1` [Example 17]: the IC50 on Factor Xa is 2 nM; at Plasmin, 3 nM; on Factor D it was 260 nM; at Thrombin, 48 nM; on C1s, 2 nM.
Consider `N=C(N)C1COc2cc(OC(=O)c3ccco3)ccc2C1` (centres unmarked) [Example 19], for which the IC50 at kallikrein was found to be 661 nM; at Factor D it was 50000 nM; on C1s, 750 nM.
Turning to `N=C(N)c1ccc2cc(OC(=O)c3ccccc3)ccc2c1` [reference, reference compound], the IC50 worked out at 7170 nM on Factor Xa, 4000 nM at Factor D, 3110 nM at Thrombin and 40 nM on C1s.

One may read the IC50 as the concentration that gives 50% inhibition.
